Data: publication PMC9385671 (Nature Communications, 2022)
Values joined by “and” are separate entries in the source; they are usually repeats but may differ in a detail not shown here. Identical values can stand only once. Like-named read-outs stand apart in the source and are kept apart here.

How the values were obtained:
FtsZ-YFP-mts = FtsZ-YFP-mts (Escherichia coli, UniProt P0A9A6); type: biochemical; set-up: made in house; host or cells: E. coli BL21(DE3) for the wild type; conditions: 5 μM protein, 1 mM GTP; for GTPase activity, single repeats: repeat 1 and repeat 2
Protocol: Reactions were performed every 20 s for a total time of 120 s. After 30 min of incubation with BIOMOL® GREEN at room temperature, the absorbance of the samples at 620 nm was monitored by TECAN plate reader. The phosphate release concentrations were calculated based on a phosphate standard curve.

MjTyrRS variants [1] = target: T1, MjTyrRS variants (Methanocaldococcus jannaschii, UniProt Q57834, D158A/F108N/H70G/L162C/L65E/Y32V); test: Intact cell fluorescence assay of HYs incorporation into SUMO-sfGFP; type: cell-based; conditions: Synthetase C64RS
T1 construct: expressed in transfected cells
Protocol: (§1) The intact cell fluorescence assay was performed to approximately compare the Br2Y and Cl2Y incorporation efficiency of screened MjTyrRSs as well as to estimate their promiscuity against other Tyr analogues. Since the gene expression of SUMO-sfGFP was driven by T5 promoter on the one round positive selection plasmid, SUMO-sfGFP can be directly expressed in DH10b strain. […] Next day, an overnight culture was inoculated in a well at a ratio of 1:100 containing 300 μL TB medium supplemented with 50 μg/mL Kan,100 μg/mL Amp, 0.5 mM IPTG as well as 1 mM HYs while the corresponding control lacked the HYs. Cells were grown in 96 well plates (Ibidi) with orbital shaking (2 mm amplitude) for 24 h at 37 °C covered with a gas-permeable foil (Sigma Aldrich, Taufkirchen, Germany). […] After 24 h incubation, the optimal density and fluorescence was measured via top reading after the gas-permeable foil was removed. Each measurement was done in triplicate.

MjTyrRS variants [2] = test: as above; type: cell-based, Methanocaldococcus jannaschii
Protocol: as §1

MjTyrRS variants [3] = target: T2, MjTyrRS variants (Methanocaldococcus jannaschii, UniProt Q57834, D158A/F108Q/H70G/L162N/L65E/Q109C/Y32G); test: as above; type: cell-based; conditions: Synthetase B48RS
T2 construct: expressed in transfected cells
Protocol: as §1

[4] = Side-chain acidity: pKa by 1H NMR titration of free amino acids; type: physicochemical; conditions: for pKa: aqueous KH2PO4 solution titrated with sodium hydroxide
Protocol: 10–20 mg of an amino acid, 50 mg of KH2PO4 was dissolved in 15 ml of water and titrated by sodium hydroxide solution to distinct pH values. 500 μl were taken to NMR tubes, 50 μl deuterium oxidewas added and ^1H NMR spectra were measured using W5 pulse tray water suppression at 500 MHz frequency. The chemical shifts were plotted against pH and analyzed using Henderson-Hasselbalch equation to deliver the pKa values. Experimental error ±0.15.

[5] = target: the molecule itself; test: dynamic light scattering; 12.5 µM FtsZ in SLB buffer (50 mM Tris-HCl pH 7.5, 150 mM KCl), 25 °C, 90° light scattering; polymerisation started by adding 4 mM GTP, followed for at least 70 min
[6] = experimental error ±0.15, read-out: Ammonium pKa
[7] = experimental error ±0.15, read-out: pKa of the phenolic side-chain

T1 sequence (Q57834 whole entry Y32V/L65E/H70G/F108N/D158A/L162C): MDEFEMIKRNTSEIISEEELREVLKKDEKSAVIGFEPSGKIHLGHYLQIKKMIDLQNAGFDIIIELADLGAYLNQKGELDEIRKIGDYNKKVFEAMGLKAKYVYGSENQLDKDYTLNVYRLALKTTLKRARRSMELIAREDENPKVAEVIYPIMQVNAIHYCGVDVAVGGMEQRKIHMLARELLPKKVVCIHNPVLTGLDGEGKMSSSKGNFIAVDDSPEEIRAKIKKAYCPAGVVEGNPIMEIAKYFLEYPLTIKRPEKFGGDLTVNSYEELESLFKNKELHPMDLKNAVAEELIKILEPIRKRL
T2 sequence (Q57834 whole entry Y32G/L65E/H70G/F108Q/Q109C/D158A/L162N): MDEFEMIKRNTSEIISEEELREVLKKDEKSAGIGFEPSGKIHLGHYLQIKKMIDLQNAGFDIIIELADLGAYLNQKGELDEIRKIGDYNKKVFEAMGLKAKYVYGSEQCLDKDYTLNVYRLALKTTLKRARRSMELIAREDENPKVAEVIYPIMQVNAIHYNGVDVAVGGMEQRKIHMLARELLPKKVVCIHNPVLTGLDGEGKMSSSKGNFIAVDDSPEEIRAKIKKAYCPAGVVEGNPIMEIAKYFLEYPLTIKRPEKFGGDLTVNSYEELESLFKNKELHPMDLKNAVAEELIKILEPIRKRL

| Molecule | GTPase activity, Average (FtsZ-YFP-mts; average of two repeats) | GTPase activity, single repeats (FtsZ-YFP-mts) | Fluorescence Instensity (MjTyrRS variants [1]) | Fluorescence Instensity (MjTyrRS variants [2]; Synthetase B4RS) | Fluorescence Instensity (MjTyrRS variants [2]; Synthetase B12RS) | Fluorescence Instensity (MjTyrRS variants [2]; Synthetase B37RS) | Fluorescence Instensity (MjTyrRS variants [2]; Synthetase B39RS) | Fluorescence Instensity (MjTyrRS variants [2]; Synthetase C45RS) | Fluorescence Instensity (MjTyrRS variants [3]) | pKa [4, 6] | pKa [4, 7] | pKa of the phenolic side-chain ([4]; experimental error ±0.15) | Fluorescence Instensity (MjTyrRS variants [2]; Synthetase C5RS) | Fluorescence Instensity (MjTyrRS variants [2]; Synthetase C61RS) | binding result [5] |
| --- | --- | --- | --- | --- | --- | --- | --- | --- | --- | --- | --- | --- | --- | --- | --- |
| N[C@@H](Cc1cc(I)c(O)c(I)c1)C(=O)O [I2Y, 3,5-diiodo-L-tyrosine] | 1.222 pi/min | 1.132 pi/min and 1.3119 pi/min | 0.1172 a.u. and 0.1504 a.u. and 0.08392 a.u. | 0.01117 a.u. and 0.01123 a.u. and 0.01112 a.u. | 0.07137 a.u. and 0.08741 a.u. and 0.05734 a.u. | 0.1118 a.u. and 0.1372 a.u. and 0.08534 a.u. | 0.1743 a.u. and 0.1958 a.u. and 0.1504 a.u. | 0.07608 a.u. and 0.1006 a.u. and 0.05086 a.u. | 0.00608 a.u. and 0.00634 a.u. and 0.00611 a.u. | 9.38 | 6.5 | 6.45 | – | – | – |
| N[C@@H](Cc1ccc(O)c(I)c1)C(=O)O [IY, 3-iodo-L-tyrosine] | – | 1.6686 pi/min and 1.8578 pi/min | 0.4349 a.u. and 0.5128 a.u. and 0.3571 a.u. | – | 0.5049 a.u. and 0.5603 a.u. and 0.4548 a.u. | 0.268 a.u. and 0.305 a.u. and 0.2304 a.u. | 0.1745 a.u. and 0.1928 a.u. and 0.1452 a.u. | 0.7321 a.u. and 0.8284 a.u. and 0.6034 a.u. | 0.5153 a.u. and 0.5773 a.u. and 0.4545 a.u. | 9.37 | 8.3 | – | 0.6274 a.u. and 0.698 a.u. and 0.5495 a.u. | 0.5143 a.u. and 0.5653 a.u. and 0.452 a.u. | – |
| wild type FtsZ-YFP-mts (domain or fragment, UniProt P0A9A6 1-366, looked up, FtsZ, prokaryotic cell-division protein (ftsZ gene product), truncated to residues 1-366; also called FtsZ chimera; FtsZ(1-366) fused with YFP and mts; source: E. coli BL21(DE3), pET-11b, purified (ammonium sulphate precipitation, anion exchange Q-Sepharose)) MFEPMELTNDAVIKVIGVGGGGGNAVEHMVRERIEGVEFFAVNTDAQALRKTAVGQTIQIGSGITKGLGAGANPEVGRNAADEDRDALRAALEGADMVFIAAGMGGGTGTGAAPVVAEVAKDLGILTVAVVTKPFNFEGKKRMAFAEQGITELSKHVDSLITIPNDKLLKVLGRGISLLDAFGAANDVLKGAVQGIAELITRPGLMNVDFADVRTVMSEMGYAMMGSGVASGEDRAEEAAEMAISSPLLEDIDLSGARGVLVNITAGFDLRLDEFETVGNTIRAFASDNATVVIGTSLDPDMNDELRVTVVATGIGMDKRPEITLVTNKQVQQPVMDRYQQHGMAPLTQEQKPVAKVVNDNAPQTA | – | – | – | – | – | – | – | – | – | – | – | – | – | – | binds |
